Tests used:
Reovirus Type 3 (REO-3) = assay: Viral inactivation of spiked porcine valve and pericardium, REO-3; type: cell-based; settings: 0.2% glutaraldehyde at 47 days; average for porcine valve and pericardium material
Porcine Parvovirus (PPV) = assay: Viral inactivation of spiked porcine valve and pericardium, PPV; type: cell-based; settings: 0.2% glutaraldehyde at 47 days; average for porcine valve and pericardium material
[1] = test system: five viruses (A-MuLV, Inf A, PPV, PrV, REO-3); assay: Viral inactivation, panel of five viruses (remaining virus); type: cell-based; settings: after 47 days of exposure
[2] = test system: Influenza A Virus (Inf A); assay: Viral inactivation of spiked porcine valve and pericardium, Inf A; type: cell-based; settings: 0.2% glutaraldehyde at 47 days; average for porcine valve and pericardium material
[3] = test system: Amphotropic Murine Leukemia Virus (A-MuLV); assay: Viral inactivation of spiked porcine valve and pericardium, A-MuLV; type: cell-based; settings: 0.2% glutaraldehyde at 47 days; average for porcine valve and pericardium material
Pseudorabies Virus (PrV) = type: cell-based; settings: 0.2% glutaraldehyde at 47 days; average for porcine valve and pericardium material
[4] = Calcification after subcutaneous implantation in rats (Examples 2 and 3), bovine pericardium; type: in vivo, Sprague-Dawley rats; settings: retrieved after 60 days of implantation, about 16 hours treatment
Experimental: In a class 100 laminar flow bench, pieces of glutaraldehyde-fixed bovine pericardium tissue (Mitroflow Inc.; Richmond, British Columbia, Canada) porcine cusp tissue (Labcor; Belo Horizonte, Brazil) and porcine wall tissue (Labcor Inc.) were transferred into sterile tubes containing 1,2-octanediol solutions (5% 1,2-octanediol (Aldrich Chemical), 40% ethanol and 55% 10 mM HEPES buffer). The tubes were transferred to a 37° C. incubator and maintained at 37° C. with gentle agitation for about 16 hours. After the treatment, the samples were transferred to solutions comprising 22% ethanol in 10 mM HEPES and stored for 14 days at 4° C. The final tissue to volume ratio for all treatments was approximately 27 ml/g. For N-methyl pyrolidinone (NMP) treatments, pieces of glutaraldehyde-fixed bovine pericardium tissue (Mitroflow Inc.), porcine cusp tissue (Labcor Inc.) and porcine wall tissue (Labcor Inc.) were transferred into sterile tubes containing NMP. The tubes were incubated at room temperature for about 16 hours with occasional manual agitation. […] Seven rats per treatment group were analyzed. […] After retrieval, the samples were analyzed for their calcium and phosphorus contents using a standard ICP methodology. […] Seven rats per treatment group were analyzed. […] After retrieval, the samples were analyzed for their calcium and phosphorus contents by ICP.

[5] = Calcification after subcutaneous implantation in rats (Example 2), porcine wall; type: in vivo, Sprague-Dawley rats; settings: retrieved after 60 days of implantation, about 16 hours treatment
Experimental: (§1) In a class 100 laminar flow bench, pieces of glutaraldehyde-fixed bovine pericardium tissue (Mitroflow Inc.; Richmond, British Columbia, Canada) porcine cusp tissue (Labcor; Belo Horizonte, Brazil) and porcine wall tissue (Labcor Inc.) were transferred into sterile tubes containing 1,2-octanediol solutions (5% 1,2-octanediol (Aldrich Chemical), 40% ethanol and 55% 10 mM HEPES buffer). The tubes were transferred to a 37° C. incubator and maintained at 37° C. with gentle agitation for about 16 hours. After the treatment, the samples were transferred to solutions comprising 22% ethanol in 10 mM HEPES and stored for 14 days at 4° C. The final tissue to volume ratio for all treatments was approximately 27 ml/g. For N-methyl pyrolidinone (NMP) treatments, pieces of glutaraldehyde-fixed bovine pericardium tissue (Mitroflow Inc.), porcine cusp tissue (Labcor Inc.) and porcine wall tissue (Labcor Inc.) were transferred into sterile tubes containing NMP. The tubes were incubated at room temperature for about 16 hours with occasional manual agitation. After the treatment, the tissue samples were transferred to 22% HEPES-buffered ethanol solutions and stored for 14 days at 4° C. […] Seven rats per treatment group were analyzed. […] After retrieval, the samples were analyzed for their calcium and phosphorus contents using a standard ICP methodology.

[6] = Calcification after subcutaneous implantation in rats (Example 2), porcine cusp; type: in vivo, Sprague-Dawley rats; settings: retrieved after 60 days of implantation, about 16 hours treatment
Experimental: as §1

Compound	Viral log reduction, REO-3 (Reovirus Type 3 (REO-3))	Viral log reduction, PPV (Porcine Parvovirus (PPV))	viruses present on porcine valves or pericardium materials [1]	Viral log reduction, Inf A [2]	Viral log reduction, A-MuLV [3]	Viral log reduction, PrV (Pseudorabies Virus (PrV))	Calcuim (μg/mg tissue) [4]	Phosphorus (μg/mg tissue) [4]	Calcuim (μg/mg tissue) [5]	Phosphorus (μg/mg tissue) [5]	Calcuim (μg/mg tissue) [6]	Phosphorus (μg/mg tissue) [6]
O=CCCCC=O [Glutaraldehyde, glutaraldehyde]	5.00 log	5.03 log	No viruses were present	3.5 log	4.15 log	5.51 log	–	–	–	–	–	–
CN1CCCC1=O [NMP, N-methyl pyrolidinone]	–	–	–	–	–	–	8.0 μg/mg tissue	3.4 μg/mg tissue	111.9 μg/mg tissue	55.2 μg/mg tissue	14.7 μg/mg tissue	7.9 μg/mg tissue

— patent US20060110370A1, “Treatments for reduction of cytotoxicity and viral contamination of implantable medical devices” (priority 2004, published 2006)
